Test [1] has as its system RAW264.7. As to the kind of experiment: Antiinflammatory activity in mouse RAW264.7 cells assessed as reduction in LPS-induced COX-2 expression after 24 hrs by Western blot analysis. Conditions: RAW264.7, 24 h. Format: functional, cell-based. (In general: A western blot detects proteins with antibodies after separation by electrophoresis.)
Test [2] relates to RAW264.7. The experiment in a line: Antiinflammatory activity in mouse RAW264.7 cells assessed as reduction in LPS-induced iNOS expression after 24 hrs by Western blot analysis. Format: functional, cell-based. The settings on record: RAW264.7, 24 h.
A further test has as its system B16-F10. As to the kind of experiment: Antiinflammatory activity in mouse B16-F10 cells assessed as decrease in LPS-induced TNFalpha expression by Western blot analysis. The test is classed as functional, cell-based.
The test system of test [3] is THP-1. The experiment in a line: Antiinflammatory activity in human THP-1 cells assessed as decrease in LPS-induced TNFalpha expression by Western blot analysis. Format: functional, cell-based.
In a further test the test system is Mus musculus. As to the kind of experiment: Anti-inflammatory activity against TPA-induced mouse ear edema model assessed as inhibition of ear edema at 1 uM relative to control. The test is classed as functional. The arrangement: scale not given: the % may be the effect or the level left.
The test system of the next test is Peritoneal macrophage. As to the kind of experiment: Antiinflammatory activity against LPS-stimulated mouse peritoneal macrophage assessed as TNF-alpha level. Format: functional, cell-based.
The subject of test [4] is BV-2. As to the kind of experiment: Antiinflammatory activity in mouse BV-2 cells assessed as reduction in LPS-induced NO production incubated for 24 hrs by microplate reader analysis. The settings on record: BV-2, 24 h. The test is classed as functional, cell-based.
The subject of test [5] is BV-2. As to the kind of experiment: Anti-inflammatory activity in mouse BV-2 cells assessed as reduction in LPS-induced NO production pre-treated with compounds for 2 hrs followed by LPS-stimulation measured for 22 hrs by Griess reagent based analysis. The test is classed as functional, cell-based.
Test [6] has as its system BV-2. The experiment in a line: Anti-inflammatory activity against mouse BV-2 cells assessed as inhibition of LPS-induced COX-2 expression at 50 uM pretreated for 2 hrs followed stimulated with LPS for 22 hrs by ELISA analysis relative to control. Further details: scale not given: the % may be the effect or the level left. The settings on record: time 24 hrs. Format: functional. For orientation: ELISA stands for enzyme-linked immunosorbent assay.

The test system of test [7] is BV-2. As to the kind of experiment: Anti-inflammatory activity against mouse BV-2 cells assessed as inhibition of LPS-induced PGE2 production at 50 uM pretreated for 2 hrs followed stimulated with LPS for 22 hrs by ELISA analysis relative to control. Format: functional. The settings on record: time 24 hrs. Further details: scale not given: the % may be the effect or the level left.

In test [8] the test system is BV-2. As to the kind of experiment: Anti-inflammatory activity against mouse BV-2 cells assessed as inhibition of LPS-induced IL-1beta secretion pretreated for 2 hrs followed stimulated with LPS for 22 hrs by ELISA analysis. The test is classed as functional, cell-based.
In test [9] the test system is BV-2. As to the kind of experiment: Anti-inflammatory activity in mouse BV-2 cells assessed as reduction in LPS-induced NO production. Format: functional, cell-based.
Test [10] concerns RAW264.7. As to the kind of experiment: Anti-inflammatory activity against LPS-stimulated mouse RAW264.7 cells assessed as inhibition of IL-6 expression at 100 uM by qRT-PCR analysis relative to control. Format: functional. Further details: scale not given: the % may be the effect or the level left.
In test [11] the test system is BV-2. The experiment in a line: Anti-inflammatory activity against mouse BV-2 cells assessed as inhibition of LPS-induced IL-1beta secretion at 50 uM pretreated for 2 hrs followed stimulated with LPS for 22 hrs by ELISA analysis relative to control. The test is classed as functional. The arrangement: scale not given: the % may be the effect or the level left. The settings on record: time 24 hrs.

Test [12] relates to BV-2. As to the kind of experiment: Anti-inflammatory activity against mouse BV-2 cells assessed as inhibition of LPS-induced IL-6 pre-treated for 2 hrs followed stimulated with LPS for 22 hrs. The test is classed as functional, cell-based.
The test system of test [13] is BV-2. The experiment in a line: Anti-inflammatory activity against mouse BV-2 cells assessed as inhibition of LPS-induced COX-2 expression pretreated for 2 hrs followed stimulated with LPS for 22 hrs by ELISA analysis. The test is classed as functional, cell-based.
The test system of test [14] is RAW264.7. The experiment in a line: Anti-inflammatory activity against LPS-stimulated mouse RAW264.7 cells assessed as inhibition of IL-6 expression at 10 uM by qRT-PCR analysis relative to control. The test is classed as functional. Further details: scale not given: the % may be the effect or the level left. A general note: In qPCR the cycle at which signal appears reflects the starting amount.

In test [15] the test system is RAW264.7. As to the kind of experiment: Anti-inflammatory activity in mouse RAW264.7 cells assessed as reduction in LPS-induced NO production by ELISA analysis. Format: functional, cell-based.
The test system of test [16] is BV-2. As to the kind of experiment: Anti-inflammatory activity against mouse BV-2 cells assessed as inhibition of LPS-induced IL-6 at 50 uM pre-treated for 2 hrs followed stimulated with LPS for 22 hrs relative to control. The test is classed as functional. Further details: scale not given: the % may be the effect or the level left. The settings on record: time 24 hrs.

Test [17] deals with BV-2. As to the kind of experiment: Anti-inflammatory activity against mouse BV-2 cells assessed as inhibition of LPS-induced PGE2 production pretreated for 2 hrs followed stimulated with LPS for 22 hrs by ELISA analysis. The test is classed as functional, cell-based.
Test [18] relates to THP-1. As to the kind of experiment: Anti-inflammatory activity in human THP-1 cells assessed as inhibition of LPS-stimulated NO production by ELISA analysis. Format: functional, cell-based.
The next test concerns HepG2. As to the kind of experiment: Anti-inflammatory activity against TNFalpha-induced human HepG2 cells assessed as inhibition of NF-kappaB activity pre-indubated for 1 hr followed by TNFalpha treatment measured for 5 hrs by luciferase based assay. The test is classed as functional, cell-based.
For test [19], the system named is BV-2. As to the kind of experiment: Antiinflammatory activity in LPS-induced mouse BV-2 cells assessed as reduction in COX-2 protein expression by Western blot analysis. The test is classed as functional, cell-based.
Test [20] has as its system RAW264.7. As to the kind of experiment: Antiinflammatory activity in LPS-activated mouse RAW264.7 cells assessed as inhibition of ROS production at 10 uM relative to control. The arrangement: scale not given: the % may be the effect or the level left. Format: functional.
Test [21] relates to RAW264.7. As to the kind of experiment: Anti-inflammatory activity in mouse RAW264.7 cells assessed as inhibition of LPS-induced TNFalpha production preincubated for 1 hr followed by LPS addition and measured after 24 hrs by ELISA. The test is classed as functional, cell-based.
Test [22] concerns RAW264.7. As to the kind of experiment: Anti-inflammatory activity in mouse RAW264.7 cells assessed as inhibition of LPS-induced IL-1beta production preincubated for 1 hr followed by LPS addition and measured after 24 hrs by ELISA. Format: functional, cell-based.
Test [23] relates to RAW264.7. As to the kind of experiment: Anti-inflammatory activity in mouse RAW264.7 cells assessed as inhibition of LPS-induced IL-6 production preincubated for 1 hr followed by LPS addition and measured after 24 hrs by ELISA. Format: functional, cell-based.
In test [24] the test system is RAW264.7. As to the kind of experiment: Antiinflammatory activity in mouse RAW264.7 cells assessed as decrease in LPS-induced IL-6 secretion after 24 hrs by ELISA method. The test is classed as functional, cell-based. Conditions: RAW264.7, 24 h.
For test [25], the system named is BV-2. As to the kind of experiment: Anti-inflammatory activity in mouse BV-2 cells assessed as inhibition of LPS-induced NO production preincubated with compound for 1 hrs followed by LPS stimulation and measured after 24 hrs by Griess reagent based assay. The test is classed as functional, cell-based.
Test [26] has as its system RAW264.7. The experiment in a line: Antiinflammatory activity against mouse RAW264.7 cells assessed as reduction of LPS-induced NO production. Format: functional, cell-based.
Test [27] is described as follows: Anti-inflammatory activity in LPS-stimulated human PBMC cells assessed as inhibition of TNFalpha at 100 ug/ml relative to control. Format: functional. The settings on record: dose 100 µg/ml. The arrangement: scale not given: the % may be the effect or the level left.
Test [28] relates to RAW264.7. The experiment in a line: Antiinflammatory activity in mouse RAW264.7 cells assessed as decrease in LPS-stimulated IL-6 mRNA level incubated for 3 hrs by RT-qPCR analysis. Format: functional, cell-based. The settings on record: RAW264.7, 3 h.
The test system of test [29] is BV-2. The experiment in a line: Antiinflammatory activity in mouse BV-2 cells assessed as reduction in LPS-induced NO production pre-treated with compound for 1 hr followed by stimulated with LPS for 18 hrs by 2,3-diaminonaphthalene reagent based fluorescence analysis. The test is classed as functional, cell-based.

The structures appear in SMILES notation. ≈ marks a conversion by molar mass, not a printed value.

The source of these data is ChEMBL document CHEMBL5543059, “Discovery of anti-inflammatory natural flavonoids: Diverse scaffolds and promising leads for drug discovery” (Eur J Med Chem, 2023).

Broadly, the IC50 is the concentration that gives 50% inhibition.

For the compound `O=C1c2c(O)cc(O)cc2O[C@H](c2cc(O)c(O)c(O)c2)[C@H]1O` [AMPELOPSIN], the IC50 in the test on RAW264.7 [1] and in the test with RAW264.7 [2] was 6.25 µg/mL (≈ 19.5 µM) each time.
In the case of `COc1cc(O)cc(O)c1C(=O)/C=C/c1ccccc1` [CARDAMOMIN], the IC50 in the test on B16-F10 turned out to be 0.6 µM; with THP-1 [3], 1.1 µM.
With `O=c1c(O)c(-c2ccccc2)oc2cc(O)cc(O)c12` [GALANGIN], the Activity in the test with Mus musculus turned out to be 27.7%.
With `O=c1c(-c2ccc(O)cc2)coc2cc(O)cc(O)c12` [GENISTEIN], the IC50 in the test with Peritoneal macrophage came out at 16.9 µM.
On to `O=C(/C=C/c1ccc(O)cc1)c1ccc(O)cc1O` [ISOLIQUIRITIGENIN], for which the IC50 with BV-2 [4] was 6.78 µM; with BV-2 [5], 5.22 µM.
On to `O=c1c(O)c(-c2ccc(O)cc2)oc2cc(O)cc(O)c12` [KAEMPFEROL], for which the Activity was found to be 51.4% in the test with BV-2 [6]; 65.2% in the test with BV-2 [7]; 64.5% in the test on RAW264.7 [10]; 53.2% in the test on BV-2 [11]; 80.7% in the test on RAW264.7 [14]; 28.1% with BV-2 [16]. In addition, the IC50 with BV-2 [8] turned out to be 80.8 µM; in the test with BV-2 [9] it was 10.6 µM; in the test on BV-2 [12], 80.8 µM; in the test with BV-2 [13], 60.1 µM; in the test on RAW264.7 [15], 14.1 µM; in the test with BV-2 [17], 52.4 µM. The results for the IC50 with THP-1 [18] and in the test with HepG2 were 15.9 µM and 20.5 µM, respectively.
Take `C=CC(C)(C)c1cc(/C=C/C(=O)c2ccc(O)cc2)c(OC)cc1O` [LICOAGROCHACONE A]: in the test on BV-2 [19], the IC50 worked out at 0.625 µg/mL (≈ 1.85 µM). Moreover, the Activity in the test on RAW264.7 [20] is 80%.
For the compound `O=c1c(O)c(-c2cc(O)c(O)c(O)c2)oc2cc(O)cc(O)c12` [MYRICETIN], the IC50 with RAW264.7 [21] stood at 23.9 µM; with RAW264.7 [22] it was 19.2 µM; in the test on RAW264.7 [23], 19.7 µM.
Consider `O=c1c(O)c(-c2ccc(O)c(O)c2)oc2cc(O)cc(O)c12` [QUERCETIN], for which the IC50 in the test on RAW264.7 [24] was 35.5 µM; in the test on BV-2 [25] it was 12.6 µM; with RAW264.7 [26], 14.2 µM; in the test on RAW264.7 [28] it was 22.5 µM; in the test on HepG2, 15.1 µM. Further, the Activity was found to be 28.6% in [27] and 83.3% with RAW264.7 [14].
With `O=C1/C(=C/c2ccc(O)c(O)c2)Oc2cc(O)ccc21` [SULFURETIN], the IC50 in the test with BV-2 [29] was found to be 31.4 µM.
